Experimental data from patent US20060100103A1, “Toning agents for use in thermographic recording materials” (AGFA-GEVAERT, priority 2004, published 2006).

Experiment: Solubility in methyl ethyl ketone
Type: physicochemical
In the case of CN1C(=O)NS(=O)(=O)c2ccccc21 [TA01], the “Solubility in methyl ethyl ketone” value is reported as >2 wt %. In the case of O=C1CS(=O)(=O)OC2=C1CCCC2 [TA03], the “Solubility in methyl ethyl ketone” value is reported as 5.5 wt %. For CC1=CC(=O)NS(=O)(=O)O1 [TA02], the “Solubility in methyl ethyl ketone” value was >10 wt %. With O=C1NS(=O)(=O)Oc2ccccc21 [TA04] the “Solubility in methyl ethyl ketone” value was >10 wt %.
